Source: PubChem BioAssay AID330 (DTP/NCI, 2004)
Values joined by “and” are separate entries in the source; they are usually repeats but may differ in a detail not shown here. Equal entries are not always repeated. Inconclusive results and toxic doses are left out. Rule for the calls: active = survival T/C of 150% or more; inactive = T/C below 125% in these data.

Tested on: P388 leukemia ip, CD2F1 mice, survival T/C
Test: NCI In Vivo Anticancer Drug Screen. Data for tumor model P388 Leukemia (intraperitoneal) in CD2F1 (CDF1) mice
Settings: endpoint: median survival time, higher = longer survival
How it was run: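 Mice carrying the transplanted tumor received test compound or vehicle. Survival was recorded in each group, and the value is the treated-group measurement divided by that of the vehicle-treated control group.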

[1] = dose: 50.0 mg/kg/injection, schedule: Q01DX009 (ip), vehicle: saline with Tween-80
[2] = dose: 50.0 mg/kg/injection, schedule: Q01DX005 (ip), vehicle: saline with Tween-80
[3] = dose: 100.0 mg/kg/injection, schedule: Q01DX005 (ip), vehicle: saline with Tween-80
[4] = dose: 100.0 mg/kg/injection, schedule: Q01DX009 (ip), vehicle: saline with Tween-80
[5] = dose: 200.0 mg/kg/injection, schedule: Q01DX009 (ip), vehicle: saline with Tween-80
[6] = dose: 200.0 mg/kg/injection, schedule: Q01DX005 (ip), vehicle: saline with Tween-80
[7] = dose: 50.0 mg/kg/injection, schedule: Q01DX005 (ip), vehicle: saline
[8] = dose: 100.0 mg/kg/injection, schedule: Q01DX005 (ip), vehicle: saline
[9] = dose: 50.0 mg/kg/injection, schedule: Q01DX009 (ip), vehicle: Klucel (hydroxypropylcellulose) (HPC)
[10] = dose: 100.0 mg/kg/injection, schedule: Q01DX009 (ip), vehicle: Klucel (hydroxypropylcellulose) (HPC)
[11] = dose: 200.0 mg/kg/injection, schedule: Q01DX009 (ip), vehicle: Klucel (hydroxypropylcellulose) (HPC)
[12] = dose: 60.0 mg/kg/injection, schedule: Q01DX005 (ip), vehicle: saline with Tween-80
[13] = dose: 120.0 mg/kg/injection, schedule: Q01DX005 (ip), vehicle: saline with Tween-80
[14] = dose: 240.0 mg/kg/injection, schedule: Q01DX005 (ip), vehicle: saline with Tween-80

Measured: T/C

CCN(CC)CCSC(=O)N1c2ccccc2Sc2ccc(Cl)cc21
inactive: dose: 3.12 mg/kg/injection, schedule: Q01DX009 (ip), vehicle: saline with Tween-80 96 % of control | dose: 6.25 mg/kg/injection, schedule: Q01DX009 (ip), vehicle: saline with Tween-80 104 % of control and 105 % of control | dose: 12.5 mg/kg/injection, schedule: Q01DX009 (ip), vehicle: saline with Tween-80 96 % of control | dose: 25.0 mg/kg/injection, schedule: Q01DX009 (ip), vehicle: saline with Tween-80 93 % of control | [1] 100 % of control

O=C1c2ccccc2C(=O)c2c1cc1c(O)c(CN3CCCC3)ccc1c2O
inactive: [2] 92 % of control | [3] 89 % of control

CN(C)c1ccc(-c2nc(=O)[nH]c(=O)s2)cc1
inactive: [1] 102 % of control | [4] 100 % of control | [5] 98 % of control

CC1[C@@H]2[C@@H](C=C3C4CCC5Cc6nc7c(nc6C[C@@]5(C)C4C[C@H](O)[C@]32CO)CC2CCC3C4=C[C@H]5O[C@@]6(O[C@@](C)(CO)C[C@@H]6O)C(C)[C@@]5(O)[C@]4(C)[C@@H](O)CC3[C@]2(C)C7)O[C@]12CCC(C)(C)O2 (stereo partly specified)
inactive: dose: 12.5 micrograms/kg/injection, schedule: Q01DX009 (ip), vehicle: saline + alcohol 107 % of control | dose: 25.0 micrograms/kg/injection, schedule: Q01DX009 (ip), vehicle: saline + alcohol 116 % of control | dose: 50.0 micrograms/kg/injection, schedule: Q01DX009 (ip), vehicle: saline + alcohol 107 % of control | dose: 100.0 micrograms/kg/injection, schedule: Q01DX009 (ip), vehicle: saline + alcohol 100 % of control

CCCCCCCCCCCCCCCCCC[N+](C)(C)C
inactive: dose: 3.12 mg/kg/injection, schedule: Q01DX009 (ip), vehicle: saline 118 % of control

[O-][n+]1cccc2c3ccccc3ncc21
inactive: dose: 6.25 mg/kg/injection, schedule: Q04DX002 (ip), vehicle: saline with Tween-80 94 % of control | dose: 12.5 mg/kg/injection, schedule: Q04DX002 (ip), vehicle: saline with Tween-80 108 % of control | dose: 25.0 mg/kg/injection, schedule: Q04DX002 (ip), vehicle: saline with Tween-80 100 % of control

COc1cc(=O)n(-c2ccccc2)nc1C#N
inactive: [2] 93 % of control | [3] 92 % of control | [6] 90 % of control

COC1OC(C)(C(OC)OC)CCC1C (stereo unspecified)
inactive: [2] 99 % of control | [3] 94 % of control | [6] 92 % of control

Cc1cc(N=Nc2ccc(NC(=O)c3ccc(N)cc3)cc2C)ccc1N=Nc1ccc2c(O)c(N=Nc3ccc(S(=O)(=O)O)cc3)c(S(=O)(=O)O)cc2c1
inactive: dose: 12.5 mg/kg/injection, schedule: Q01DX005 (ip), vehicle: saline 100 % of control | dose: 25.0 mg/kg/injection, schedule: Q01DX005 (ip), vehicle: saline 105 % of control | [7] 105 % of control and 108 % of control | [8] 103 % of control

CC(=O)Nc1ccc(NC(=S)Nc2ccccc2C(F)(F)F)cc1
inactive: [9] 96 % of control | [10] 92 % of control | [11] 87 % of control

COc1ccc2[nH]cc(C#N)c(=O)c2c1
inactive: [2] 101 % of control | [3] 90 % of control | [6] 92 % of control

O=C(Nc1ccc(Cl)cc1)OCC1C2C=CC(C2)C1CO (stereo unspecified)
inactive: dose: 100.0 mg/kg/injection, schedule: Q04DX003 (ip), vehicle: Klucel (hydroxypropylcellulose) (HPC) 101 % of control | dose: 200.0 mg/kg/injection, schedule: Q04DX003 (ip), vehicle: Klucel (hydroxypropylcellulose) (HPC) 95 % of control | dose: 400.0 mg/kg/injection, schedule: Q04DX003 (ip), vehicle: Klucel (hydroxypropylcellulose) (HPC) 104 % of control

O=C(O)C1CCC(=O)N1Cc1c[nH]c2ccccc12 (stereo unspecified)
inactive: [12] 98 % of control | [13] 94 % of control | [14] 97 % of control

CC(=O)OB(OC(C)=O)O[B-]12Oc3ccccc3C=[N+]1c1ccccc1S2 (stereo unspecified)
inactive: dose: 100.0 mg/kg/injection, schedule: Q04DX002 (ip), vehicle: saline with Tween-80 106 % of control | dose: 200.0 mg/kg/injection, schedule: Q04DX002 (ip), vehicle: saline with Tween-80 97 % of control | dose: 400.0 mg/kg/injection, schedule: Q04DX002 (ip), vehicle: saline with Tween-80 92 % of control

Cc1nnc2c3nccnc3c(N)nn12
inactive: [12] 96 % of control | [13] 104 % of control | [14] 104 % of control

C=C(Br)c1ccc2c(c1)OCO2
inactive: [12] 106 % of control | [13] 102 % of control | [14] 102 % of control

C=C1C[C@]23C[C@H](O)[C@]4(O)[C@@]5(C)C[C@H](O)C[C@]46C(C2[C@@H]1[C@@H](OC(=O)/C(C)=C/C)[C@@H](OC(=O)/C(C)=C/C)[C@H]36)N(C)C5 (stereo partly specified)
inactive: dose: 0.5 mg/kg/injection, schedule: Q01DX005 (ip), vehicle: saline + alcohol 102 % of control | dose: 1.0 mg/kg/injection, schedule: Q01DX005 (ip), vehicle: saline + alcohol 105 % of control and 106 % of control | dose: 2.0 mg/kg/injection, schedule: Q01DX005 (ip), vehicle: saline + alcohol 105 % of control and 109 % of control | dose: 4.0 mg/kg/injection, schedule: Q01DX005 (ip), vehicle: saline + alcohol 103 % of control and 109 % of control | dose: 8.0 mg/kg/injection, schedule: Q01DX005 (ip), vehicle: saline + alcohol 103 % of control

CCCCCCC1CC1C(=O)NCCCCCN=C(N)N (stereo unspecified)
inactive: dose: 7.5 mg/kg/injection, schedule: Q01DX009 (ip), vehicle: Klucel (hydroxypropylcellulose) (HPC) 100 % of control | dose: 15.0 mg/kg/injection, schedule: Q01DX009 (ip), vehicle: Klucel (hydroxypropylcellulose) (HPC) 100 % of control | dose: 30.0 mg/kg/injection, schedule: Q01DX009 (ip), vehicle: Klucel (hydroxypropylcellulose) (HPC) 107 % of control

Cc1cccc(Cl)c1NC1=NCCN1C(=O)CC(=O)c1ccccc1
inactive: dose: 3.13 mg/kg/injection, schedule: Q01DX009 (ip), vehicle: Klucel (hydroxypropylcellulose) (HPC) 107 % of control | dose: 6.25 mg/kg/injection, schedule: Q01DX009 (ip), vehicle: Klucel (hydroxypropylcellulose) (HPC) 105 % of control | dose: 12.5 mg/kg/injection, schedule: Q01DX009 (ip), vehicle: Klucel (hydroxypropylcellulose) (HPC) 99 % of control and 100 % of control

CC1=NN(C(=O)c2ccncc2)C(=O)C1N=Nc1ccc(S(=O)(=O)Nc2ncccn2)cc1 (stereo unspecified)
inactive: [1] 95 % of control | [4] 91 % of control | [5] 92 % of control

CCOC(OCC)/C(=C\N(C)C)N=C(C#N)C#N
inactive: [2] 113 % of control | [3] 111 % of control

CNC(=N)c1ccc(NC(=N)c2ccc(NC(=N)c3ccc(NC(=O)Nc4ccc(C(=N)Nc5ccc(C(=N)Nc6ccc(C(=N)NC)cc6)cc5)cc4)cc3)cc2)cc1
inactive: dose: 1.78 mg/kg/injection, schedule: Q04DX003 (ip), vehicle: saline with Tween-80 108 % of control | dose: 2.66 mg/kg/injection, schedule: Q04DX003 (ip), vehicle: saline with Tween-80 108 % of control | dose: 4.0 mg/kg/injection, schedule: Q04DX003 (ip), vehicle: saline with Tween-80 116 % of control

c1cnc2c(c1)ccc1ncccc12
inactive: dose: 50.0 mg/kg/injection, schedule: Q01DX005 (ip), vehicle: Klucel (hydroxypropylcellulose) (HPC) 104 % of control | dose: 100.0 mg/kg/injection, schedule: Q01DX005 (ip), vehicle: Klucel (hydroxypropylcellulose) (HPC) 95 % of control | dose: 200.0 mg/kg/injection, schedule: Q01DX005 (ip), vehicle: Klucel (hydroxypropylcellulose) (HPC) 97 % of control

CC(C)CNc1ncnc2c1cnn2C
inactive: [7] 94 % of control | [8] 112 % of control | dose: 200.0 mg/kg/injection, schedule: Q01DX005 (ip), vehicle: saline 115 % of control

COc1ccc(CCN2C(=O)C(=O)N(c3cccc4c(N5C(=O)C(=O)N(CCc6ccc(OC)c(OC)c6)C5=O)cccc34)C2=O)cc1OC
inactive: [9] 95 % of control | [10] 93 % of control | [11] 96 % of control

CC[As](=O)(O)CC(C)C
inactive: dose: 25.0 mg/kg/injection, schedule: Q04DX002 (ip), vehicle: saline 100 % of control | dose: 50.0 mg/kg/injection, schedule: Q04DX002 (ip), vehicle: saline 100 % of control

CCCSc1nn2cc(NC(=O)OC)nc2s1
inactive: [2] 97 % of control | [3] 100 % of control | [6] 103 % of control

CCCCNC1CC(OC2CC(O)(C(C)=O)Cc3c(O)c4c(c(O)c32)C(=O)c2c(OC)cccc2C4=O)OC(C)C1O (stereo unspecified)
inactive: dose: 2.0 mg/kg/injection, schedule: Q01DX009 (ip), vehicle: water 102 % of control | dose: 4.0 mg/kg/injection, schedule: Q01DX009 (ip), vehicle: water 100 % of control | dose: 8.0 mg/kg/injection, schedule: Q01DX009 (ip), vehicle: water 118 % of control | dose: 16.0 mg/kg/injection, schedule: Q01DX009 (ip), vehicle: water 118 % of control
